The source of these data is patent US4436925A, “Addition compound of dipeptide derivative and amino acid derivative” (Toyo Soda Manufacturing Co., Ltd., priority 1977, dated 1984).

The nature of series [1]: Solubility in water or diluted hydrochloric acid.
For series [2] the following is noted: times of that of sugar; cited from earlier work.

Where a SMILES comes first, the peptide text is derived from it.

For the molecule `COC(=O)[C@H](Cc1ccccc1)NC(=O)[C@H](CC(=O)O)NC(=O)OCc1ccccc1`, the figures for the solubility in series [1] (in diluted hydrochloric acid (10^-2 M) at 25° C.) and in series [1] (in water at 25° C.) were 0.017 g/100 g diluted hydrochloric acid (10^-2 M) and 0.028 g/100 g water, respectively. Take `COC(=O)[C@H](Cc1ccccc1)NC(=O)[C@@H](N)CC(=O)O` [α-L-Aspartyl-L-phenylalanine methyl ester] (H-Asp-Phe-OMe): the “sweetness relative to sugar” value in series [2] is reported as “about 200 times”.
